Counter-ions that a name gives are not always drawn.
Experiments:
Assay in all cases: Bacterial Susceptibility Test, zone size
Format in all cases: cell-based
[1] = system: Pseudomonas auriginosa
Protocol: (§1) The combination of amikacin and cefepime on different microorganisms was taken to analyze the efficiency of combination in comparison with the individual components of the drug. Different concentrations were selected mentioned to as highest, high, low and lowest in the data. Zone size was determined in mm.

[2] = system: E. coli
Protocol: as §1

[3] = system: Klebsiella pneumoniae
Protocol: as §1

[4] = system: Enterococcus faecalis
Protocol: as §1

[5] = system: Staphylococcus aureus
Protocol: as §1

[6] = system: Streptococcus pneumoniae
Protocol: as §1

Question: For `NCC[C@H](O)C(=O)N[C@@H]1C[C@H](N)[C@@H](O[C@H]2O[C@H](CN)[C@@H](O)[C@H](O)[C@H]2O)[C@H](O)[C@H]1O[C@H]1O[C@H](CO)[C@@H](O)[C@H](N)[C@H]1O` [Amikacin, D-Streptamine, O-3-amino-3-deoxy-α-d-glucopyranosyl)1→6)-O-[6-amino-6-deoxy-α-D-glucopyranosyl(1→4)]-N^1-(4-amino-2-hydroxy-1-oxobutyl)-2-deoxy-,(S)-,sulfate (1:2)(salt)], which Zone ([1]; concentration High) is on record?
Answer: 21.81 mm

Question: What about the Zone ([1]; concentration Highest) of the same compound?
Answer: 26.93 mm

Question: What about the Zone ([1]; concentration Low) of the same compound?
Answer: 16.05 mm

Question: What about the Zone ([1]; concentration Lowest) of the same compound?
Answer: 09.81 mm

Question: And the Zone ([2]; concentration High)?
Answer: 29.02 mm

Question: And the Zone ([2]; concentration Highest)?
Answer: 30.90 mm

Question: What about the Zone ([2]; concentration Low) of the same compound?
Answer: 22.06 mm

Question: And the Zone ([2]; concentration Lowest)?
Answer: 15.02 mm

Question: And the Zone ([3]; concentration High)?
Answer: 31.25 mm

Question: And the Zone ([3]; concentration Highest)?
Answer: 34.98 mm

Question: And the Zone ([3]; concentration Low)?
Answer: 31.02 mm

Question: What about the Zone ([3]; concentration Lowest) of the same compound?
Answer: 29.98 mm

Question: What about the Zone ([4]; concentration High) of the same compound?
Answer: 23.24 mm

Question: What about the Zone ([4]; concentration Highest) of the same compound?
Answer: 27.29 mm

Question: And the Zone ([4]; concentration Low)?
Answer: 17.97 mm

Question: And the Zone ([4]; concentration Lowest)?
Answer: 08.05 mm

Question: And the Zone ([5]; concentration High)?
Answer: 24.42 mm

Question: And the Zone ([5]; concentration Highest)?
Answer: 28.92 mm

Question: And the Zone ([5]; concentration Low)?
Answer: 18.79 mm

Question: And the Zone ([5]; concentration Lowest)?
Answer: 10.09 mm

Question: What about the Zone ([6]; concentration High) of the same compound?
Answer: 24.28 mm

Question: And the Zone ([6]; concentration Highest)?
Answer: 26.58 mm

Question: What about the Zone ([6]; concentration Low) of the same compound?
Answer: 18.34 mm

Question: What about the Zone ([6]; concentration Lowest) of the same compound?
Answer: 12.32 mm

Question: What does the source list for `CO/N=C(\C(=O)N[C@@H]1C(=O)N2C(C(=O)O)=C(C[N+]3(C)CCCC3)CS[C@H]12)c1csc(N)n1.Cl.O.[Cl-]` [Cefepime, 1-[[(6R,7R)-7-[2-(2-amino-4-thiazolyl)-glyoxylamido]-2-carboxy-8-oxo-5-thia-1-azabicyclo[4.2.0]oct-2-en-3-yl]methyl]-1-methyl-pyrrolidinium chloride, 7^2-(Z)-(O-methyloxime), monohydrochloride, monohydrate]?
Answer: Zone ([1]; concentration High): 27.56 mm; Zone ([1]; concentration Highest): 30.94 mm; Zone ([1]; concentration Low): 18.81 mm; Zone ([1]; concentration Lowest): 12.08 mm; Zone ([2]; concentration High): 30.16 mm; Zone ([2]; concentration Highest): 32.24 mm; Zone ([2]; concentration Low): 24.20 mm; Zone ([2]; concentration Lowest): 16.42 mm; Zone ([3]; concentration High): 32.35 mm; Zone ([3]; concentration Highest): 36.02 mm; Zone ([3]; concentration Low): 31.96 mm; Zone ([3]; concentration Lowest): 30.83 mm; Zone ([4]; concentration High): 25.52 mm; Zone ([4]; concentration Highest): 28.98 mm; Zone ([4]; concentration Low): 19.92 mm; Zone ([4]; concentration Lowest): 12.65 mm; Zone ([5]; concentration High): 28.44 mm; Zone ([5]; concentration Highest): 31.06 mm; Zone ([5]; concentration Low): 21.18 mm; Zone ([5]; concentration Lowest): 16.24 mm; Zone ([6]; concentration High): 28.10 mm; Zone ([6]; concentration Highest): 30.32 mm; Zone ([6]; concentration Low): 23.02 mm; Zone ([6]; concentration Lowest): 19.54 mm
